In ChEMBL document CHEMBL2074414, “Molecular and functional characterization of organic cation/carnitine transporter family in mice” (J Biol Chem, 2000):

Assays:
[1] = molecular target: T1, Solute carrier family 22 member 21 (Mus musculus) (UniProt Q9WTN6); test: TP_TRANSPORTER: inhibition of carnitine transport by gamma-butyrobetaine at 5uM in Octn3-HEK cells; format: functional, cell-based; set-up: scale not given: the % may be the effect or the level left; conditions: HEK293
T1 sequence (whole entry): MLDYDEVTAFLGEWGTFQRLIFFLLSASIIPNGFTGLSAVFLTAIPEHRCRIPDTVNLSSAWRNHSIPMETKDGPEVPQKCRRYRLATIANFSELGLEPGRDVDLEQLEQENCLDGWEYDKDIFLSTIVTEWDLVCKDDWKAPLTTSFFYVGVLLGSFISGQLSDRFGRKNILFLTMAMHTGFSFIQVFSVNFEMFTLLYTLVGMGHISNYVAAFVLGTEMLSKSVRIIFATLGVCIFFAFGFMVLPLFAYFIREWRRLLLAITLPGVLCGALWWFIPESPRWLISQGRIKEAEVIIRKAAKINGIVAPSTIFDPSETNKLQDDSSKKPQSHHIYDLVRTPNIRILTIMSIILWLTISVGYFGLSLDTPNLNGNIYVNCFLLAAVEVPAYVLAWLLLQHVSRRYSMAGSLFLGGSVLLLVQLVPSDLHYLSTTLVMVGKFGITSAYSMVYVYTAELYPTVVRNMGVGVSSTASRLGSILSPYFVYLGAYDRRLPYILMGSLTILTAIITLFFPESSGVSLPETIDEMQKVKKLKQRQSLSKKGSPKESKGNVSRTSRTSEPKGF

[2] = molecular target: T2, Octn2 (Organic cation/carnitine transporter 2) (Mus musculus, UniProt Q9Z0E8); test: TP_TRANSPORTER: inhibition of carnitine uptake by gamma-butyrobetaine at 5uM in Octn2-HEK cells; format: functional, cell-based, HEK293; set-up: scale not given: the % may be the effect or the level left; conditions: human, probe carnitine, read-out: Activity
T2 sequence (Q9Z0E8 whole entry): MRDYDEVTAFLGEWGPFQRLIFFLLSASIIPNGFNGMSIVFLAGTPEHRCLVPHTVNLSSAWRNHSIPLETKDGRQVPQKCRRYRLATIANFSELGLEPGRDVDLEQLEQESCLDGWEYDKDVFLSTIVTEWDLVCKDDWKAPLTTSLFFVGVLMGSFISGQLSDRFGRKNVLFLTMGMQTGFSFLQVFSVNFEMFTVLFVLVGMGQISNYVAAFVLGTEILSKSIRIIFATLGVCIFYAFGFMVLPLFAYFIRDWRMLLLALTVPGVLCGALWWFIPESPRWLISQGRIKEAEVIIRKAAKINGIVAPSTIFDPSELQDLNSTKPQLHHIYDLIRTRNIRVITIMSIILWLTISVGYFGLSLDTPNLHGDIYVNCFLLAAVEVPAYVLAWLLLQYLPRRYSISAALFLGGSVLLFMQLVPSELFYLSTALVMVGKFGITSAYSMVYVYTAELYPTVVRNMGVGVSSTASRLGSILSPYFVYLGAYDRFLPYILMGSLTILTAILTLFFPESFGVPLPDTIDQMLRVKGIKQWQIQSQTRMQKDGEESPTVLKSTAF

[3] = molecular target: T1, Solute carrier family 22 member 21 (Mus musculus); test: TP_TRANSPORTER: inhibition of carnitine uptake by Acetyl-L-carnitine at 5uM in Octn3-HEK cells; format: functional, cell-based; set-up: scale not given: the % may be the effect or the level left; conditions: HEK293
[4] = molecular target: T3, Organic cation/carnitine transporter 2 (Mus musculus, UniProt Q9Z0E8); test: TP_TRANSPORTER: inhibition of carnitine uptake by Acetyl-L-carnitine at 5uM in Octn2-HEK cells; format: functional, cell-based; set-up: scale not given: the % may be the effect or the level left; conditions: human, hek293, 5 µM
T3 sequence (Q9Z0E8 whole entry): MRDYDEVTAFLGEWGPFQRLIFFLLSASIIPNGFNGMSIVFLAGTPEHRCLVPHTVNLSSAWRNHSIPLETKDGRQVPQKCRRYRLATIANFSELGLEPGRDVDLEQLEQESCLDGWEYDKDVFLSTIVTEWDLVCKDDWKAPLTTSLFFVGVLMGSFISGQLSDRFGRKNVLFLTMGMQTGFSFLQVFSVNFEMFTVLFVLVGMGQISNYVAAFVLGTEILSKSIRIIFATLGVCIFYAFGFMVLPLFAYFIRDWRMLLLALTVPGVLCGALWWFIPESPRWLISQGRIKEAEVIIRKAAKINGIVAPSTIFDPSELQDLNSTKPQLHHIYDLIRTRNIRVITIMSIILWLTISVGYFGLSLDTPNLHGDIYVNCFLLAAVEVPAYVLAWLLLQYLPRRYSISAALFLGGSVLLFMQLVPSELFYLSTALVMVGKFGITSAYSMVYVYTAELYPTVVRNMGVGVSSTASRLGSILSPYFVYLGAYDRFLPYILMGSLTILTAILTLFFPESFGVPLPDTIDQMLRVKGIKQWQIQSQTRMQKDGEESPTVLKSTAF

[5] = molecular target: T1, Solute carrier family 22 member 21 (Mus musculus); test: TP_TRANSPORTER: inhibition of carnitine uptake by Glycine betaine at 500uM in Octn3-HEK cells; format: functional, cell-based; set-up: scale not given: the % may be the effect or the level left; conditions: HEK293
[6] = molecular target: T3, Organic cation/carnitine transporter 2; test: TP_TRANSPORTER: inhibition of carnitine uptake by Glycine betaine at […] in Octn2-HEK cells; format: functional, cell-based; set-up: scale not given: the % may be the effect or the level left; conditions: human, hek293
[7] = molecular target: T1, Solute carrier family 22 member 21 (Mus musculus); test: TP_TRANSPORTER: inhibition of carnitine transport by Butyryl-carnitine at 5uM in Octn3-HEK cells; format: functional, cell-based; set-up: scale not given: the % may be the effect or the level left; conditions: HEK293
[8] = molecular target: T3, Organic cation/carnitine transporter 2; test: TP_TRANSPORTER: inhibition of carnitine uptake by Butyryl-carnitine at 5uM in Octn2-HEK cells; format: functional, cell-based; set-up: scale not given: the % may be the effect or the level left; conditions: human, hek293, 5 µM
[9] = molecular target: T4, Solute carrier family 22 member 4 (Mus musculus, UniProt Q9Z306); test: TP_TRANSPORTER: uptake in Octn1-HEK cells; format: functional, cell-based; conditions: human, hek293
T4 sequence (Q9Z306 whole entry): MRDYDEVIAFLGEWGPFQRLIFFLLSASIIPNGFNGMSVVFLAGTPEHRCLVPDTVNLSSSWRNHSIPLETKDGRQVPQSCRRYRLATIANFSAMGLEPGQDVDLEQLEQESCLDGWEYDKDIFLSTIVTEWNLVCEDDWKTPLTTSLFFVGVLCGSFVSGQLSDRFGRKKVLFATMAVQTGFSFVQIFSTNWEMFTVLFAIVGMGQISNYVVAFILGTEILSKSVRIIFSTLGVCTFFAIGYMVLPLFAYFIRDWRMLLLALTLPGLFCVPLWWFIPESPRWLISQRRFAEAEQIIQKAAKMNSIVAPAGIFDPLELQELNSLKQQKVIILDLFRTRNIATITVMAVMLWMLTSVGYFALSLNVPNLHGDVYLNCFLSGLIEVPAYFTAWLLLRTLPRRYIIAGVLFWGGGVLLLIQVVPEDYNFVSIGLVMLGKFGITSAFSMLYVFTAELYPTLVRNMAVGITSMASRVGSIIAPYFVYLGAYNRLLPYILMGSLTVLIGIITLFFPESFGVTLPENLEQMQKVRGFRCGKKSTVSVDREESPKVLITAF

[10] = molecular target: T2, Octn2 (Organic cation/carnitine transporter 2); test: in vitro; conditions: human, Octn2-HEK cells, probe carnitine
[11] = molecular target: T1, Solute carrier family 22 member 21 (Mus musculus); test: TP_TRANSPORTER: inhibition of carnitine uptake by Octanoyl-carnitine at 5uM in Octn3-HEK cells; format: functional, cell-based; set-up: scale not given: the % may be the effect or the level left; conditions: HEK293
[12] = molecular target: T2, Octn2 (Organic cation/carnitine transporter 2); test: TP_TRANSPORTER: inhibition of carnitine uptake by Octanoyl-carnitine at 5uM in Octn2-HEK cells; format: functional, cell-based, HEK293; set-up: scale not given: the % may be the effect or the level left; conditions: human, probe carnitine, read-out: Activity
[13] = molecular target: T2, Octn2 (Organic cation/carnitine transporter 2); test: TP_TRANSPORTER: inhibition of carnitine transport by Palmitoyl-carnitine at 5uM in Octn2-HEK cells; format: functional, cell-based, HEK293; set-up: scale not given: the % may be the effect or the level left; conditions: human, probe carnitine, read-out: Activity
[14] = molecular target: T1, Solute carrier family 22 member 21 (Mus musculus); test: TP_TRANSPORTER: inhibition of carnitine in Octn3-HEK cells; format: functional, cell-based; conditions: HEK293
[15] = substrate: C[N+](C)(C)CC(O)CC(=O)[O-]; test: TP_TRANSPORTER: uptake in Octn3-HEK cells; format: functional, cell-based; conditions: HEK293
[16] = substrate: CC[N+](CC)(CC)CC; test: cells, lysate or membranes named
[17] = substrate: C[N+](C)(C)CC(O)CC(=O)[O-]; test: TP_TRANSPORTER: uptake in Octn2-HEK cells; format: functional, cell-based, HEK293

Work on `C[N+](C)(C)CCCC(=O)[O-]` yielded an Activity [1] of 11% and an activity at 5 µM [2] of 77%.

For `CC(=O)O[C@H](CC(=O)[O-])C[N+](C)(C)C` [ACETYLCARNITINE], the Activity [3] was 21% and the Activity [4] was 67%.

`C[N+](C)(C)CC(=O)O` [BETAINE] was tested, and the Activity [5] was 84% and the Activity [6] was 56%.

`CCCC(=O)OC(CC(=O)[O-])C[N+](C)(C)C` (stereo not drawn) [Butyryl-carnitine] was tested, and the Activity [7] was 13% and the Activity [8] was 66%.

With `C[N+](C)(C)CC(O)CC(=O)[O-]` (stereo not drawn) [CARNITINE] the Activity [9] was “substrate []”.

`C[N+](C)(C)CCO` [CHOLINE] was tested, and the activity at 500 µM [10] was 75%.

Work on `CCCCCCCC(=O)OC(CC(=O)O)C[N+](C)(C)C` (stereo not drawn) [Octanoyl-carnitine] yielded an Activity [11] of 15% and an activity at 5 µM [12] of 38%.

In the case of `CCCCCCCCCCCCCCCC(=O)OC(CC(=O)[O-])C[N+](C)(C)C` (stereo not drawn) [Palmitoyl-carnitine], the activity at 5 µM [13] is reported as 28% and the Activity [14] is reported as 54 µM.

B1: Solute carrier family 22 member 21 (Mus musculus), Q9WTN6 (protein)
chain: MLDYDEVTAFLGEWGTFQRLIFFLLSASIIPNGFTGLSAVFLTAIPEHRCRIPDTVNLSSAWRNHSIPMETKDGPEVPQKCRRYRLATIANFSELGLEPGRDVDLEQLEQENCLDGWEYDKDIFLSTIVTEWDLVCKDDWKAPLTTSFFYVGVLLGSFISGQLSDRFGRKNILFLTMAMHTGFSFIQVFSVNFEMFTLLYTLVGMGHISNYVAAFVLGTEMLSKSVRIIFATLGVCIFFAFGFMVLPLFAYFIREWRRLLLAITLPGVLCGALWWFIPESPRWLISQGRIKEAEVIIRKAAKINGIVAPSTIFDPSETNKLQDDSSKKPQSHHIYDLVRTPNIRILTIMSIILWLTISVGYFGLSLDTPNLNGNIYVNCFLLAAVEVPAYVLAWLLLQHVSRRYSMAGSLFLGGSVLLLVQLVPSDLHYLSTTLVMVGKFGITSAYSMVYVYTAELYPTVVRNMGVGVSSTASRLGSILSPYFVYLGAYDRRLPYILMGSLTILTAIITLFFPESSGVSLPETIDEMQKVKKLKQRQSLSKKGSPKESKGNVSRTSRTSEPKGF
For B1, the Km [15] was 3 µM.

B2: Solute carrier family 22 member 4 (Mus musculus) (protein)
chain: MRDYDEVIAFLGEWGPFQRLIFFLLSASIIPNGFNGMSVVFLAGTPEHRCLVPDTVNLSSSWRNHSIPLETKDGRQVPQSCRRYRLATIANFSAMGLEPGQDVDLEQLEQESCLDGWEYDKDIFLSTIVTEWNLVCEDDWKTPLTTSLFFVGVLCGSFVSGQLSDRFGRKKVLFATMAVQTGFSFVQIFSTNWEMFTVLFAIVGMGQISNYVVAFILGTEILSKSVRIIFSTLGVCTFFAIGYMVLPLFAYFIRDWRMLLLALTLPGLFCVPLWWFIPESPRWLISQRRFAEAEQIIQKAAKMNSIVAPAGIFDPLELQELNSLKQQKVIILDLFRTRNIATITVMAVMLWMLTSVGYFALSLNVPNLHGDVYLNCFLSGLIEVPAYFTAWLLLRTLPRRYIIAGVLFWGGGVLLLIQVVPEDYNFVSIGLVMLGKFGITSAFSMLYVFTAELYPTLVRNMAVGITSMASRVGSIIAPYFVYLGAYNRLLPYILMGSLTVLIGIITLFFPESFGVTLPENLEQMQKVRGFRCGKKSTVSVDREESPKVLITAF
Molecule B2 has a Km [16] of 452 µM.

B3: Organic cation/carnitine transporter 2 (Mus musculus) (protein)
chain: MRDYDEVTAFLGEWGPFQRLIFFLLSASIIPNGFNGMSIVFLAGTPEHRCLVPHTVNLSSAWRNHSIPLETKDGRQVPQKCRRYRLATIANFSELGLEPGRDVDLEQLEQESCLDGWEYDKDVFLSTIVTEWDLVCKDDWKAPLTTSLFFVGVLMGSFISGQLSDRFGRKNVLFLTMGMQTGFSFLQVFSVNFEMFTVLFVLVGMGQISNYVAAFVLGTEILSKSIRIIFATLGVCIFYAFGFMVLPLFAYFIRDWRMLLLALTVPGVLCGALWWFIPESPRWLISQGRIKEAEVIIRKAAKINGIVAPSTIFDPSELQDLNSTKPQLHHIYDLIRTRNIRVITIMSIILWLTISVGYFGLSLDTPNLHGDIYVNCFLLAAVEVPAYVLAWLLLQYLPRRYSISAALFLGGSVLLFMQLVPSELFYLSTALVMVGKFGITSAYSMVYVYTAELYPTVVRNMGVGVSSTASRLGSILSPYFVYLGAYDRFLPYILMGSLTILTAILTLFFPESFGVPLPDTIDQMLRVKGIKQWQIQSQTRMQKDGEESPTVLKSTAF
B3 was tested, and the Km [17] was 22 µM and the Km [16] was 216 µM.
